Results reported in US7531646B2, “β-D-ribosidase activity indicators with a chromogenic substrate” (priority 2001, dated 2009).
Counter-ions that a name gives are not always drawn.

How the values were obtained:
[1] = system: Staphylococcus haemolyticus; assay: Substrate hydrolysis on Columbia agar; assay type: cell-based; details: 300 mg/l, 18 hours
A. lwoffii = assay: Substrate hydrolysis on Columbia agar; assay type: cell-based; details: A. lwoffii ATCC 15309; 300 mg/l; 18 hours
Gram negative bacteria = assay: Substrate hydrolysis on Columbia agar, summary of screen; assay type: cell-based
Vibrio hollisae = assay: Substrate hydrolysis on Columbia agar; assay type: cell-based; details: Vibrio hollisae NCTC 11640; 300 mg/l; 18 hours
Serratia spp. = assay: Substrate hydrolysis on Columbia agar; assay type: cell-based; details: 300 mg/l, 18 hours
Salmonella oranienburg = assay: Substrate hydrolysis on Columbia agar; assay type: cell-based; details: Salmonella oranienburg SAX 56; 300 mg/l; 18 hours
Streptococcus sanguis = assay: Substrate hydrolysis on Columbia agar; assay type: cell-based; details: Streptococcus sanguis NCTC 7863; 300 mg/l; 18 hours
Enterococcus raffinosis = assay: Substrate hydrolysis on Columbia agar; assay type: cell-based; details: Enterococcus raffinosis NCTC 13192; 300 mg/l; 18 hours
Shigella flexneri = assay: Substrate hydrolysis on Columbia agar; assay type: cell-based; details: 300 mg/l, 18 hours
Description: (§1) This was achieved using a densitometer.
(§2) The same method was used as in Example 1.

Shigella sonnei = assay: Substrate hydrolysis on Columbia agar; assay type: cell-based; details: 300 mg/l, 18 hours
Description: as §1, §2

Vibrio mimicus = assay: Substrate hydrolysis on Columbia agar; assay type: cell-based; details: Vibrio mimicus NCTC 11435; 300 mg/l; 18 hours
Description: as §1, §2

Salmonella motevideo = assay: Substrate hydrolysis on Columbia agar; assay type: cell-based; details: Salmonella motevideo SAX 55; 300 mg/l; 18 hours
Description: as §1, §2

Shigella boydii = assay: Substrate hydrolysis on Columbia agar; assay type: cell-based; details: 300 mg/l, 18 hours
Description: as §1, §2

Salmonella alachia = assay: Substrate hydrolysis on Columbia agar; assay type: cell-based; details: Salmonella alachia SAX 60; 300 mg/l; 18 hours
Description: as §1, §2

C. diphtheriae = assay: Substrate hydrolysis on Columbia agar; assay type: cell-based, Corynebacterium diphtheriae; details: 300 mg/l, 18 hours
Streptococcus mitis = assay: Substrate hydrolysis on Columbia agar; assay type: cell-based; details: Streptococcus mitis NCTC 12261; 300 mg/l; 18 hours
P. mirabilis = assay: Substrate hydrolysis on Columbia agar; assay type: cell-based; details: 300 mg/l, 18 hours
Bacillus cereus = assay: Substrate hydrolysis on Columbia agar; assay type: cell-based; details: Bacillus cereus NCTC; 300 mg/l; 18 hours
[2] = system: Haemolytic streptococcus B; assay: Substrate hydrolysis on Columbia agar; assay type: cell-based; details: 300 mg/l, 18 hours
[3] = system: Providencia alcalifaciens; assay: Substrate hydrolysis on Columbia agar; assay type: cell-based; details: 300 mg/l, 18 hours
Aeromonas hydrophila = assay: Substrate hydrolysis on Columbia agar; assay type: cell-based; parameters: key to the marks not given beside the values; details: Aeromonas hydrophila NCTC 8049; 300 mg/l; 18 hours
Gram positive bacteria = assay: Substrate hydrolysis on Columbia agar, summary of screen; assay type: cell-based; details: of 74 Gram positive bacteria tested; 300 mg/l; 18 hours
[4] = system: Haemolytic streptococcus C; assay: Substrate hydrolysis on Columbia agar; assay type: cell-based; details: 300 mg/l, 18 hours
Vibrio parahaemolyticus = assay: Substrate hydrolysis on Columbia agar; assay type: cell-based; details: 300 mg/l, 18 hours
Y. enterocolitica = assay: Substrate hydrolysis on Columbia agar; assay type: cell-based; details: 300 mg/l, 18 hours
Streptococcus salivarius = assay: Substrate hydrolysis on Columbia agar; assay type: cell-based; details: Streptococcus salivarius NCTC 8618; 300 mg/l; 18 hours
Streptococcus agalactiae = assay: Substrate hydrolysis on Columbia agar; assay type: cell-based; details: Streptococcus agalactiae NCTC 8181; 300 mg/l; 18 hours
[5] = system: Streptococcus vestibularis; assay: Substrate hydrolysis on Columbia agar; assay type: cell-based; details: Streptococcus vestibularis NCTC 12166; 300 mg/l; 18 hours
Streptococcus oralis = assay: Substrate hydrolysis on Columbia agar; assay type: cell-based; details: Streptococcus oralis NCTC11427; 300 mg/l; 18 hours
Enterococcus faecium = assay: Substrate hydrolysis on Columbia agar; assay type: cell-based; details: 300 mg/l, 18 hours

Structure (SMILES): O=c1cc(-c2ccc(OC3OC(CO)C(O)C3O)c(O)c2)oc2ccccc12 [DHF-riboside, 3′,4′-dihydroxyflavone-4′-β-D-ribofuranoside Sodium Salt]
- Hydrolysis by Gram positive organisms ([1]; Staphylococcus haemolyticus RB 66): +
- Hydrolysis by Gram positive organisms ([1]; Staphylococcus haemolyticus RB 67): +
- Hydrolysis by Gram positive organisms ([1]; Staphylococcus haemolyticus RB 68): +
- Hydrolysis by Gram positive organisms ([1]; Staphylococcus haemolyticus RB 69): +
- Hydrolysis by Gram positive organisms ([1]; Staphylococcus haemolyticus RB 70): +
- Hydrolysis by Gram negative bacteria (A. lwoffii): −
- Gram negative bacteria tested that hydrolysed the substrate (Gram negative bacteria; of 120 Gram negative bacteria tested, 300 mg/l, 18 hours): 68.3%
- colouration and diffusion of positive strains (Gram negative bacteria; positive Gram negative strains, agar): clearly visible black chelate which remained restricted to bacterial colonies without diffusion into the surrounding agar
- Hydrolysis by Gram negative bacteria (Vibrio hollisae): −
- Hydrolysis by Gram negative bacteria (Serratia spp.; Serratia spp. SEX 1): ++
- Hydrolysis by Gram negative bacteria (Serratia spp.; Serratia spp. SEX 2): ++
- Hydrolysis by Gram negative bacteria (Serratia spp.; Serratia spp. SEX 3): ++
- Hydrolysis by Gram negative bacteria (Serratia spp.; Serratia spp. SEX 4): ++
- Hydrolysis by Gram negative bacteria (Salmonella oranienburg): ++
- Hydrolysis by Gram positive organisms (Streptococcus sanguis): −
- Hydrolysis by Gram positive organisms (Enterococcus raffinosis): +
- Hydrolysis by Gram negative bacteria (Shigella flexneri; Shigella flexneri NCTC 8192): ++
- Hydrolysis by Gram negative bacteria (Shigella flexneri; Shigella flexneri NCTC 9723): ++
- Hydrolysis by Gram negative bacteria (Shigella flexneri; Shigella flexneri NCTC 9780): ++
- Hydrolysis by Gram negative bacteria (Shigella sonnei; Shigella sonnei NCTC 8219): ++
- Hydrolysis by Gram negative bacteria (Shigella sonnei; Shigella sonnei NCTC 8574): ++
- Hydrolysis by Gram negative bacteria (Shigella sonnei; Shigella sonnei NCTC 8586): ++
- Hydrolysis by Gram negative bacteria (Shigella sonnei; Shigella sonnei NCTC 9774): ++
- Hydrolysis by Gram negative bacteria (Shigella sonnei; Shigella sonnei NCTC 10352): ++
- Hydrolysis by Gram negative bacteria (Vibrio mimicus): −
- Hydrolysis by Gram negative bacteria (Salmonella motevideo): ++
- Hydrolysis by Gram negative bacteria (Shigella boydii; Shigella boydii NCTC 9327): ++
- Hydrolysis by Gram negative bacteria (Shigella boydii; Shigella boydii NCTC 9732): ++
- Hydrolysis by Gram negative bacteria (Shigella boydii; Shigella boydii NCTC 9850): ++
- Hydrolysis by Gram negative bacteria (Salmonella alachia): ++
- Hydrolysis by Gram positive organisms (C. diphtheriae; C. diphtheriae NCTC 3987): +
- Hydrolysis by Gram positive organisms (C. diphtheriae; C. diphtheriae NCTC 10356): ++
- Hydrolysis by Gram positive organisms (C. diphtheriae; C. diphtheriae NCTC 11397): ++
- Hydrolysis by Gram positive organisms (C. diphtheriae; Corynebacterium diphtheria NEQAS): ++
- Hydrolysis by Gram positive organisms (Streptococcus mitis): −
- Hydrolysis by Gram negative bacteria (P. mirabilis; P. mirabilis NCTC 10975): −
- Hydrolysis by Gram negative bacteria (P. mirabilis; P. mirabilis PMI 1): −
- Hydrolysis by Gram negative bacteria (P. mirabilis; P. mirabilis PMI 2): −
- Hydrolysis by Gram positive organisms (Bacillus cereus): −
- Hydrolysis by Gram positive organisms ([2]; Haemolytic streptococcus B 1): −
- Hydrolysis by Gram positive organisms ([2]; Haemolytic streptococcus B 2): −
- Hydrolysis by Gram positive organisms ([2]; Haemolytic streptococcus B 3): −
- Hydrolysis by Gram negative bacteria ([3]; Providencia alcalifaciens PAL 1): +
- Hydrolysis by Gram negative bacteria ([3]; Providencia alcalifaciens PAL 2): −
- Hydrolysis by Gram negative bacteria (Aeromonas hydrophila): ++
- Gram positive bacteria tested that hydrolysed the substrate (Gram positive bacteria): 30.8%
- Hydrolysis by Gram positive organisms ([4]; Haemolytic streptococcus C 1): −
- Hydrolysis by Gram positive organisms ([4]; Haemolytic streptococcus C 67736): −
- Hydrolysis by Gram positive organisms ([4]; Haemolytic streptococcus C 68350): −
- Hydrolysis by Gram negative bacteria (Vibrio parahaemolyticus; Vibrio parahaemolyticus NCTC 10441): −
- Hydrolysis by Gram negative bacteria (Vibrio parahaemolyticus; Vibrio parahaemolyticus NCTC 10884): −
- Hydrolysis by Gram negative bacteria (Vibrio parahaemolyticus; Vibrio parahaemolyticus NCTC 10903): −
- Hydrolysis by Gram negative bacteria (Vibrio parahaemolyticus; Vibrio parahaemolyticus NCTC 11344): −
- Hydrolysis by Gram negative bacteria (Vibrio parahaemolyticus; Vibrio parahaemolyticus NCTC 12205): −
- Hydrolysis by Gram negative bacteria (Y. enterocolitica; Y. enterocolitica NCTC 10460): −
- Hydrolysis by Gram negative bacteria (Y. enterocolitica; Y. enterocolitica NCTC 11176): −
- Hydrolysis by Gram negative bacteria (Y. enterocolitica; Y. enterocolitica NCTC 11177): −
- Hydrolysis by Gram negative bacteria (Y. enterocolitica; Y. enterocolitica NCTC 11600): −
- Hydrolysis by Gram positive organisms (Streptococcus salivarius): −
- Hydrolysis by Gram positive organisms (Streptococcus agalactiae): −
- Hydrolysis by Gram positive organisms [5]: −
- Hydrolysis by Gram positive organisms (Streptococcus oralis): −
- Hydrolysis by Gram positive organisms (Enterococcus faecium; Enterococcus faecium 1): −
- Hydrolysis by Gram positive organisms (Enterococcus faecium; Enterococcus faecium 2): −
- Hydrolysis by Gram positive organisms (Enterococcus faecium; Enterococcus faecium 3): −
- Hydrolysis by Gram positive organisms (Enterococcus faecium; Enterococcus faecium 4): +
- Hydrolysis by Gram positive organisms (Enterococcus faecium; Enterococcus faecium 5): −
- Hydrolysis by Gram positive organisms (Enterococcus faecium; Enterococcus faecium 6): +
- Hydrolysis by Gram positive organisms (Enterococcus faecium; Enterococcus faecium 7): −
- Hydrolysis by Gram positive organisms (Enterococcus faecium; Enterococcus faecium 121285 - wild ′99): −
